Tests used:
[1] = tested on: KC6141 mouse PDAC cells; assay: Cell viability assay (CCK-8); assay type: cell-based; conditions: WT and IKKα KD 6141 cells on ECM, 0.5 mM glucose, 3 days; EIPA, IPI549 600 nM, MBQ-167 500 nM
Procedure: Extracellular Matrix (ECM) Preparation. Skin fibroblasts were seeded on 6/12/96-well plates. One day after plating, cells were switched into DMEM (with pyruvate) with 10% dialysed FBS supplemented with or without 500 μM ^3H-proline and 100 μM Vitamin C. Cells were cultured for 6 days with media renewal every 24 h. After six days, skin fibroblasts were removed by washing in 1 ml or 500 μl or 100 μl per well PBS with 0.5% (v/v) Triton X-100 and 20 mM NH4OH. ECM was washed five times with PBS before plating KC6141 cells. The following day, KC6141 cells were switched into the indicated medium for 24 or 72 hrs.
Cell viability assay. Cell viability was determined with Cell Counting Kit-8 assay (CCK-8 assay kit, Glpbio). Cells were plated in 96-well plates at a density of 3000 cells (MIA PaCa-2) or 1500 cells (KC6141) per well and incubated overnight prior to treatment. EIPA (10 μM), MRT68921 (600 nM) or erlotinib (2 μM, Sigma) were added to the wells for 72 and 96 hrs. Next, 10 μL of CCK-8 was added to each well. The optical density was read at 450 nm using a microplate reader (FilterMax F5, Molecular Devices, USA) at day 0, 1, 2, 3, and 4. For glutamine-deprivation assays, cells in 96-well plates were rinsed briefly in PBS and incubated in the 0.2 mM glutamine. Glutamine-free DMEM medium was supplemented with 0.2 mM glutamine in the presence of 10% dialysed FBS and 25 mM HEPES. For some conditions, the medium was supplemented with a final concentration of 2% BSA (Fraction V, fatty-acid-, nuclease and protease-free, Calbiochem). For all experiments, media were replaced every 24 hrs. Viable cell counts were obtained using CCK-8 assay described as above.
In some embodiments, cells were plated in 96-well plates coated with or without ECM at a density of 3000 cells (MIA PaCa-2, 1444, 1305, COLO 357/FG) or 1500 cells (KC6141) per well and incubated overnight prior to treatment. EIPA (10.5 μM), IPI549 (600 nM), MBQ-167 (500 nM), MRT68921 (600 nM) or erlotinib (2 μM, Sigma), ML385 (10 μM, Sigma), HCQ (10 μM or 80 μM) or their combinations were added to the wells for 24, 72 or 96 hrs. Next, 10 μL of CCK-8 was added to each well. The optical density was read at 450 nm using a microplate reader (FilterMax F5, Molecular Devices, USA) at day 0, 1, 2, 3, and 4. For glutamine-deprivation assays, cells in 96-well plates were rinsed briefly in PBS and incubated in the 0.2 mM glutamine. Glutamine-free DMEM medium was supplemented with 0.2 mM glutamine in the presence of 10% dialyzed FBS and 25 mM HEPES. For glucose-deprivation assays, cells in 96-well plates were rinsed briefly in PBS and incubated in the 0.5 mM glucose. Glucose-free DMEM medium was supplemented with 0.5 mM glucose in the presence of 10% dialyzed FBS and 25 mM HEPES. For some conditions, the medium was supplemented with a final concentration of 2% BSA (Fraction V, fatty-acid-, nuclease and protease-free, Calbiochem). For all experiments, media were replaced every 24 hrs. Viable cell counts were obtained using CCK-8 assay described as above.

[2] = tested on: AKT phosphorylation; assay: Immunoblot of AKT phosphorylation; assay type: cell-based, human; conditions: NRF2(E79Q)-Myc-overexpressing MIA PaCa-2 cells, 600 nM IPI549
Procedure: Immunoblot and immunoprecipitation. Cells were harvested and lysed in RIPA buffer (50 mM Tris-HCl, pH 7.4, 150 mM NaCl, 1% Triton X-100, 1% Na deoxycholate, 0.1% SDS, 1 mM EDTA) supplemented with complete protease inhibitor cocktail. Proteins were resolved on SDS-polyacrylamide gels, and then transferred to a polyvinylidene difluoride membrane. After blocking with 5% (w/v) fat free milk, the membrane was stained with the corresponding primary antibodies followed by incubation with the appropriate secondary HRP-conjugated antibodies, and development with ECL. Immunoreactive bands were detected by automatic X-ray film processor or KwikQuant Imager.

For `C[C@H](NC(=O)c1c(N)nn2cccnc12)c1cc2cccc(C#Cc3cnn(C)c3)c2c(=O)n1-c1ccccc1` [IPI549], the “cell viability enhanced by extracellular matrix (ECM)” value [1] was “suppressed” and the AKT phosphorylation [2] was “suppression of AKT phosphorylation”.

From patent publication US12458630B2, “Combination therapy for cancer” (The Regents of the University of California, priority 2020, dated 2025)
